In patent US5541215A, “Heterocycle-substituted benzenemethanamine derivatives” (Janssen Pharmaceutica N.V., priority 1991, dated 1996):
Converted amounts (≈) assume the structure as drawn.

Tests used:
in vitro = assay type: cell-based; conditions: human, mt-4 cells
Method: (§1) A rapid, sensitive and automated assay procedure was used for the in-vitro evaluation of anti-HIV agents. An […] T4-cell line, MT-4, which was previously shown Koyanagi et al., Int. J. Cancer, , 36, 445-451, 1985) to be highly susceptible to and permissive for HIV infection, served as the target cell line. Inhibition of the HIV-induced cytopathic effect was used as the end point. The viability of both HIV- and mock-infected cells was assessed spectrophotometrically via the in-situ reduction of 3-(4,5-dimethylthiazol-2-yl)-2,5-diphenyltetrazolium bromide (MTT). The 50% cytotoxic dose (CD50 in μg/ml) was defined as the concentration of compound that reduced the absorbance of the mock-infectedcontrol sample by 50%. The percent protection achieved by the compound in HIV-infected cells was calculated by the following formula: [formula] whereby (ODT)HIV is the optical density measured with a given concentration of the test compound in HIV-infected cells; (ODC)HIV is the optical density measured for the control untreated HIV-infected cells; (ODC)MOCK is the optical density means for the control untreated mock-infected cells; all optical density values were determined at 540 nm. The dose achieving 50% protection according to the above formula was defined as the 50% effective dose […]). The ratio of CD50 to ED50 was defined as the selectivity index (SI).

HIV-1 = assay: in-vitro anti-HIV assay: inhibition of HIV-induced cytopathic effect in MT-4 cells (MTT); assay type: cell-based; conditions: for SI (selectivity index, ratio of CD50 to ED50): CD50/ED50, MT-4 cells; for EC50: Human immunodeficiency virus 1, MT4, read-out: ED50 (50% effective dose)
Method: as §1

Compound | CC50 (in vitro) | SI (selectivity index, ratio of CD50 to ED50) (HIV-1) | EC50 (HIV-1)
NC(=O)C(Nc1ncccc1[N+](=O)[O-])c1c(Cl)cccc1Cl (racemic) [compound 1, (±)-2,6-dichloro-α-[(3-nitro-2-pyridinyl)amino]benzeneacetamide] | 35.8 µg/mL (≈ 105 µM) | 1299 | 0.03 µg/mL (≈ 0.0879 µM)
NC(=O)C(Nc1ccc[nH]c1=O)c1c(Cl)cccc1Cl (racemic) [compound 8, (±)-2,6-dichloro-α-[(1,2-dihydro-2-oxo-3-pyridinyl)amino]benzeneacetamide] | 217 µg/mL (≈ 696 µM) | 1181 | 0.18 µg/mL (≈ 0.577 µM)
CC(=O)c1cccnc1NC(C)c1c(Cl)cccc1Cl (racemic) [compound 11, (±)-1-[2-[[1-(2,6-dichlorophenyl)ethyl]amino]-3-pyridinyl]ethanone] | 31.4 µg/mL (≈ 102 µM) | 463 | 0.068 µg/mL (≈ 0.22 µM)
N#Cc1cccnc1NC(C(N)=O)c1c(Cl)cccc1Cl (stereo not drawn) [compound 2] | 25.3 µg/mL (≈ 78.8 µM) | 243 | 0.1 µg/mL (≈ 0.311 µM)
CCn1nc(C)c([N+](=O)[O-])c1NC(C(N)=O)c1c(Cl)cccc1Cl (stereo not drawn) [compound 3] | 122 µg/mL (≈ 327 µM) | 61 | 2 µg/mL (≈ 5.37 µM)
CC(=O)c1nccnc1NC(C(N)=O)c1c(Cl)cccc1Cl (stereo not drawn) [compound 7] | 157 µg/mL (≈ 462 µM) | 41.5 | 3.8 µg/mL (≈ 11.2 µM)
CC(=O)c1nccnc1NC(C)c1c(Cl)cccc1Cl (stereo not drawn) [compound 12] | 3.82 µg/mL (≈ 12.3 µM) | 289 | 0.013 µg/mL (≈ 0.0419 µM)
CC(Nc1ncccc1[N+](=O)[O-])c1c(Cl)cccc1Cl (stereo not drawn) [compound 13] | 0.24 µg/mL (≈ 0.769 µM) | 33 | 0.0073 µg/mL (≈ 0.0234 µM)
